One block for each molecule: values may come before it. Non-standard residues stand in square brackets, D forms with d. Residues, ends and D or L forms follow the SMILES beside them. No end group written: not given here. NMeF = CN[C@@H](Cc1ccccc1)C(=O)O; Cha = N[C@@H](CC1CCCCC1)C(=O)O; dCha = N[C@H](CC1CCCCC1)C(=O)O
Columns and labels:
[1] = molecular target: T1, C5a receptor (Homo sapiens, UniProt P21730); assay: Competition binding against 125I-labeled intact C5a on human neutrophil (PMN) membranes
T1 construct: followed by a 20 μL aliquot of neutrophil membrane; endogenous in cells
T1 sequence (P21730 1-350): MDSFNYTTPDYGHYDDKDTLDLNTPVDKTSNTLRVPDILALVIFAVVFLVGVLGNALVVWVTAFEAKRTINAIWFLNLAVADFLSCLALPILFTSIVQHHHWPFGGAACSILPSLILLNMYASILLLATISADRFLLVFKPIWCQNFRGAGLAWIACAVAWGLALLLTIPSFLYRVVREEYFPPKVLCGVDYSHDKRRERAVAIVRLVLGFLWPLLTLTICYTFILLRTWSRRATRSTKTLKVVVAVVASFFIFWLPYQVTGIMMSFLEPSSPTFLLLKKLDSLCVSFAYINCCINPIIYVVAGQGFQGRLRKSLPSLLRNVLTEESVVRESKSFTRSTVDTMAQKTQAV
Text: The affinity of these peptides is shown, for example, by radiolabeling intact C5a, and using the unlabeled peptide to compete the labeled C5a from C5a receptor binding sites on cellular membranes. Preparations of polymorphonuclear leukocytes (PMN's) are known to express the C5a receptor, (inhibition of the chemotactic response to C5a of this type of cell is one desirable utility for compounds identified by the instant assay). One method for preparing these membranes is described by Rollins, T. E. et al., [J. Biol. Chem. 264:520-526 (1988); see also U.S. Pat. No. 5,177,190, herein incorporated by reference as a method for isolating and purifying C5a receptor]. Briefly, this involves isolating PMN's in large quantity, disrupting these cells and obtaining the membrane fraction by centrifugation. Protein assay of the membrane preparation allows for standardization of the amount of protein added in any set of membrane binding experiments.
(§1) In FIG. 1, unlabeled C013 is used to compete with ^125 I-labeled C5a. […] In FIG. 2, the C013 is ^125 I labeled. Unlabeled C5a and unlabeled C013 are each used to compete the labeled C013 from C5a binding sites on the membranes. […] In FIG. 3a, ^125 I-C5a is competed from its binding site by unlabeled C064 and unlabeled, natural C5a (as opposed to recombinant C5a, which, however, may also obviously may be used for these purposes). […] In FIG. 3b, the inverse experiment is shown, wherein ^125 I-C064 is displaced by unlabeled C064 and unlabeled nC5a.
Hexapeptides within this class differing only at position X have similar affinities for the C5a receptor. As measured in competition binding experiments against ^125 I-C5a on human neutrophil membranes their IC50 's varied by only a factor of 3, from 25 to 80 nM (Table II):
^2 Binding experiments were carried out with human neutrophil
Binding is initiated by an addition of 20 μL of PMN membrane (typically 0.5 μg of protein) to each tube. After incubation for 90 min. at room temperature 2 ml of 0.05 M HEPES, pH 7.2, containing 0.5% BSA are added to the tube, the contents vortexed and filtered over a Whatman GF/C filter which has been soaked in 0.3% polyethylenimine. An additional 2 ml of buffer are added to the tube and used to wash the filter. All of the test samples are dissolved in DMSO, another water miscible organic solvent, or in an aqueous solvent. Non-specific background was determined by inclusion of a 100-fold excess of unlabeled C5a.
The percent inhibition is calculated according to the following formula: [formula]
Iodination of C5a was carded out with the use of chloramine T. (Rollins, T.E., and Springer, M.S. (1985) J. Biol. Chem. 260, 7157-7160). […] Concentrations of C5a were determined by amino acid analysis and by RIA (Amersham Corp.). Membranes were prepared from human PMN as described by Rollins, T.E., Sciliano, S and Springer, M.S., J. Biol Chem 264 520-526 (1988).

[2] = molecular target: T1, C5a receptor; assay: biochemical; format: binding; conditions: for IC50: read-out: IC50 exhibited by the unlabeled ligand
Protocol: Initially, we attempted to conduct binding studies with ^125 I radiolabeled C009: ^125 I-Tyr Phe Lys Ala Cha Cha Leu dPhe Arg, SEQ.ID:1:, wherein Cha is cyclohexylalanine, and dPhe is the D isomer of phenylalanine. This compound is a C5a agonist displaying a Ki for C5a of 8 nM. The presence of the tyrosine allowed us to radioiodinate the peptide and establish a binding assay in which both C5a (IC50=0.1 nM) and unlabeled C009 (IC50 =10 nM) inhibit the binding of ^125 I-C009 with concentration dependencies similar to those obtained from competition experiments against ^125 I-C5a.
as §1
Peptide (5 nMoles) are added to 40μL of 0.1 M sodium phosphate, pH 7.6, in a tube, followed by 2 mCi of ^125 I in 20 μL. 10 μL of a freshly made 0.5 mg/mL solution of chloramine T is then added. After 30 seconds of incubation, 10 μL of a freshly prepared 2 mg/mL solution of Na2 S2 O3 is added, the tube is vortexed, and the sample loaded onto a Vydac C4 reverse phase column. The column is developed with a TFA/acetonitrile gradient and the iodinated peptide is isolated. The material is stored at 4° C. in the elution buffer.
To 205 μL binding buffer (50 mM HEPES, pH 7.2, containing 5 mM MgCl2, 1mM CaCl2, 0.5% BSA) in a polypropylene tube is added 30,000CPM of the ^125 I peptide in 20 μL, and 5 μL of a known dilution of the test compound or diluent, followed by a 20 μL aliquot of neutrophil membrane [equivalent to 500,000 neutrophils; Rollins, T.E. et al., J. Biol Chem. 260:7157 (1985); see also U.S. Pat. No. 5,177,190, herein incorporated by reference].
The assay mixture is incubated for 2 hours at 29° C. Binding buffer (2 mL) is then added, the tube is vortexed, and the contents filtered over a Wattmann GF/C filter soaked in 0.33% polyethylenimine. An additional aliquot of binding buffer (2 mL) is added to the tube to rinse the tube, and is then used to wash the filter. The filters are removed from the apparatus and counted. Non-specific backgrounds are determined by performing assays in the presence of either 10 nM C5a, or 1 μM unlabeled peptide. Compounds which inhibit the binding of the labeled peptide are considered to be potential active compounds.

[3] = tested on: human neutrophils; assay: Degranulation, myeloperoxidase (MPO) release from human neutrophils (agonism); format: cell-based
Protocol: (§2) FIG. 5A and 5B. Degranulation and Ca^2+ responses to the hexapeptides. […] The ED50 's for the degranulation are: C5a, 0.5 nM; C028, 0.2 μM; C026, 1 μM. C5a, maximally, released 57% of the total cellular content of MPO. The ability of these molecules to elicite a Ca^2+ -flux is shown in B. The concentrations used for C028 (10 μM), C026 (10 μM), C061 (100 μM) are those which produce a maximal flux. A saturating concentration was also used for C5a (1 nM).
(§3) This assay was performed on human neutrophils as previously reported and it is a measure of C5a or peptide induced exocytosis (Rollins, T. E. and Springer, M. S. (1985) J. Biol. Chem. 260, 7157-7160).
The functional properties of two of the peptides, C026, and C028, were originally described by Mollison et. al (Mollison, K. W., Krause, R. A., Fey, T. A., Miller, L., Wiedeman, P. e., Kawai, M., Lane, B., Luly, J. R. and Carter, G. W. (1992) FASEB J. 6, A2058). […] We have reinvestigated the degranulating activities of these peptides as measured by the release of myeloperoxidase (MPO) from human neutrophils. […] The EC50 /IC50 (degranulation/binding) for C028 is 8, the same as that measured for C5a (Table II, FIG. 5A). […] However, the difference in activity between C026 and C028 is significant and reproducible. Since the structural difference between the two is the substitution of an aromatic for an aliphatic residue (Phe for Cha) we chose to make additional changes at position 5 which further increased aromaticity. […] To further examine whether the differences in activity between the peptides reflects the increased aromaticity we synthesized a molecule with Leu, an aliphatic amino acid, at position 5 (C068, Table II).

[4] = tested on: human neutrophils; assay: Ligand induced Ca2+ flux (Indo-1 fluorescence); format: cell-based; conditions: maximal effects, peptide 10-100 μM vs 1 nM C5a, FIG. 5B
Protocol: as §2
(§4) Ligand induced Ca^2+ fluxes were measured by following the change in Indo-1 induced fluorescence on a FACS analyzer as previously described (Van Riper, G., Siciliano, S. J., Fischer, P. A., Meurer, R., Springer, M. S. and Rosen, H. (1993) J. Exp. Med. 177, 851-856.).
FIG. 5B compares the maximal effects of each peptide (10-100 μM) with the response induced by C5a (1 nM).

[5] = molecular target: T1, C5a receptor; assay: Agonist activity over all C5a induced responses (chemotaxis, MPO release, calcium flux, GTPase activity, GTPγ-S binding); format: cell-based; conditions: C089 tested up to and including 100 μM
Protocol: The EC50 measures the concentration of compound at which a 50% maximal stimulation of a given biological response induced by C5a is achieved (chemotaxis, MPO release, calcium flux, GTPase activity or GTPγ-S binding), and the IC50 is the concentration at which 50% maximal inhibition of C5a binding is achieved.
as §3, §4
This assay is a modification of the procedure described by Sims et. al. (Sims, T. J., Geissler, F. T. and Page, R. C. (1985) J. lmmunol. Meth. 78, 279-291 ). Chemotaxis was assayed in a 48 well Neuro Probe chamber (Neuro Probe, Bethesda, MD) using ^51 Cr-labelled cells. […] After preforming a gradient for 30 minutes at 37° C., 2×10^5 labelled cells were added to the upper chamber and allowed to migrate at 37° C. for one hour. The upper two polycarbonate filters were then discarded and the formed wells cut from the nitrocellulose membrane. The radioactivity present in these filters is a measure of the number of cells that migrated through both polycarbonate filters.
The method of Kupper et al. (Kupper, R. W., Dewald, B., Jakobs, K. H., Baggiolini, M. and Gierschik, P. (1992) Biochem. J. 282, 429-434) was adapted for use in microtiter plates. Neutrophil membranes were suspended in 50 mM triethanolamine-HCl, 5 mM MES, pH 7.3, containing 1 mM EDTA, 5 mM MgCl2, 143 mM NaCl, 0.16 % BSA, 1 mM ouabain, 1 mM AMP-PNP, 0.5 mM ATP, 2.5 U/mL creatine phosphokinase,. 10 mM creatine phosphate, 0.1 mM PMSF and 10 ng/mL each of leupeptin, aprotinin and chymostatin. 50 μL of membranes containing 1-5 μg protein were added to 50 μL of the same buffer containing the test agent and 0.25 μM [γ-^32 P]-GTP (2,000 cpm/pmol) in the wells of a U-shaped microtiter plate. After incubation for 15-30 rain at 29° C., 100 μL of a 10% (w/v) charcoal suspension in 100 mM H3 PO4 was added and plates were centrifuged at 2000 rpm for 5 min. 100 μL of the supernatant was transferred to an Optiplate microtiter plate and 100 μL of Microscint-40 scintillation cocktail was added. Plates were counted in a Packard TopCount microtiter plate counter.

[6] = labeled ligand 125I-C5a, read-out: IC50 exhibited by the unlabeled ligand

Molecule: CC(C)C[C@H](NC(=O)CNC(=O)[C@H](CC1CCCCC1)NC(=O)[C@H](C)NC(=O)[C@H](CCCCN)NC(=O)[C@H](Cc1ccccc1)NC(=O)[C@@H](N)Cc1ccc(O)cc1)C(=O)N[C@H](Cc1ccccc1)C(=O)N[C@@H](CCCNC(=N)N)C(=O)O [C013, Tyr Phe Lys Ala Cha Gly Leu dPhe Arg] (H-YFKA[Cha]GL[dF]R-OH)
IC50 [1, 6]: 14 nM
binding affinity relative to 125I-C009 [2]: about 30 fold
IC50 ([2]; labeled ligand 125I-C013): 1 nM

Molecule: IL-8: chemokine IL-8
release of total cellular MPO ([3]; 0.4 nM C5a or 8 nM IL-8, cells without C089): 19%

Molecule: CSCC[C@H](NC=O)C(=O)N[C@@H](CC(C)C)C(=O)N[C@@H](Cc1ccccc1)C(=O)O [fMLP, N-formyl-methionyl-leucyl-phenylalanine, reference compound]
effect on binding of C5a COOH-terminal peptides in words ([2]; 125I-C009 for fMLP and IL-8, COOH-terminal peptides for L-584,020): neither

Molecule: ^125 I-Tyr Phe Lys Ala Cha Cha Leu dPhe Arg [125I-C009]
non-specific binding of the labeled peptide [2]: high non-specific binding

B1: 125I-C5a: C5a iodinated with chloramine T (100-200 mCi/mg) (protein, UniProt P01031 678-751, looked up)
C5a anaphylatoxin: TLQKKIEEIAAKYKHSVVKKCCYDGACVNNDETCEQRAARISLGPRCIKAFTECCVVASQLRANISHKDMQLGR
modifications: C5a anaphylatoxin 125I label
affinity of radioiodinated C5a in words ([1]; 100-200 mCi/mg): same affinity for the receptor as did the nonderivatized protein

Now from value to molecule, other results behind:

IC50 [1, 6]: 8 nM
non-specific binding of the labeled peptide [2]: low non-specific binding
IC50 ([2]; labeled ligand 125I-C064): 1.5 nM
Molecule: Tyr Phe Lys Pro dCha Cha dArg (YFKP[dCha][Cha][dR]) [C064, name also used for the 125I-Tyr peptide]

IC50 ([1]; Table II, human neutrophil membranes, competition against 125I-C5a, read-out: Binding IC50): 60 nM
Molecule: CN[C@@H](Cc1ccccc1)C(=O)N[C@@H](CCCCN)C(=O)N1CCC[C@H]1C(=O)N[C@H](CC1CCCCC1)C(=O)N[C@@H](CC(C)C)C(=O)N[C@H](CCCNC(=N)N)C(=O)O [C068] (H-[NMeF]KP[dCha]L[dR]-OH)
degranulating activity in words ([3]; FIG. 5A): full agonist, as measured both by maximal release and ED50 /IC50 ratio
Ca2+ response in words [4]: full agonist in this assay
agonist activity in words, all responses [5]: almost complete agonists of all of these responses
